Data on 22 compounds can be found in ChEMBL document CHEMBL3638586, “Inhibition of memapsin 1 cleavage in the treatment of diabetes” (2015).

The target in one experiment is T1, Beta-secretase 2 (Homo sapiens, UniProt Q9Y5Z0).
T1 sequence (Q9Y5Z0 whole entry): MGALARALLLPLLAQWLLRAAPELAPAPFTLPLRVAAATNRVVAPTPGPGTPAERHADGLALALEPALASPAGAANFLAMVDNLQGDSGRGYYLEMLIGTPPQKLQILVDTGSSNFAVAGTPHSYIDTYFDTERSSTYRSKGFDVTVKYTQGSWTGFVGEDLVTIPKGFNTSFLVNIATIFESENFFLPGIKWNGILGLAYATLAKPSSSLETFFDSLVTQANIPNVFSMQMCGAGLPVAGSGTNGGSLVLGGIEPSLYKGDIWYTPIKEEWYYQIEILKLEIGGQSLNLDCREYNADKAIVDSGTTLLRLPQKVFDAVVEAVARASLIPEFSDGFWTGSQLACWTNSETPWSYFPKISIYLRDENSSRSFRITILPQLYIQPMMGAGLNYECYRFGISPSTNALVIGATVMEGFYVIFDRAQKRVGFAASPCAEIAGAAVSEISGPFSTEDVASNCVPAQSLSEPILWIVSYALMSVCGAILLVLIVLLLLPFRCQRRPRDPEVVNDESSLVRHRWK
Put plainly: (§1) Inhibition Assay: Previously, one of the following compounds discussed below have been studied in memapsin 2 inhibition (Ghosh et al., 2008), which the others are previously unpublished. Given the closely related substrate specificity for memapsin 1 and memapsin 2, the inventors chose to screen these previously identified memapsin 2 inhibitors for lead compounds as memapsin 1 inhibitors. Recombinant memapsin 1 ectodomain was prepared as described by Turner et al. (2002) and assayed using a commercially purchased fluorescent substrate.

A further experiment concerns the target Beta-secretase 1 (Homo sapiens, UniProt P56817). The experiment is described as §1.

As usually defined, the Ki is a measure of affinity in units of concentration, obtained from inhibition or displacement. As usually defined, the IC50 is the concentration that gives 50% inhibition.

Molecules are shown by their SMILES.

Beta-secretase 1, sequence (P56817 whole entry): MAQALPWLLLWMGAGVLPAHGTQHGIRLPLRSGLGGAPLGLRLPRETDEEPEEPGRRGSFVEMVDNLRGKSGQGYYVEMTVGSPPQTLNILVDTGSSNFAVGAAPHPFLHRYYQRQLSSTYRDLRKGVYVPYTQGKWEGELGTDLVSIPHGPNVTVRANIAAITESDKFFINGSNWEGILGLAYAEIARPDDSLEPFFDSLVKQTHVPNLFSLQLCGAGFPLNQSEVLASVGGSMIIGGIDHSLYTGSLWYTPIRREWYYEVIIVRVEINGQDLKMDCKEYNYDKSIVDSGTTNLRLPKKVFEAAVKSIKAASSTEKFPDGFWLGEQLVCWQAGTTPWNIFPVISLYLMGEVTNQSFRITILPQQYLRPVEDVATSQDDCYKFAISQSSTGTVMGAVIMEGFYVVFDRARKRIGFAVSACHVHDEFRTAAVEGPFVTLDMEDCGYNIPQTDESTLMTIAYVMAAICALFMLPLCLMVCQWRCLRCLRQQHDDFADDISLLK

For `CCCC(O)N(NC[C@H](Cc1ccccc1)NC(=O)c1cc2c3c(c1)c(CC)cn3CC1(CC1)S(=O)(=O)N2C)C(=O)NC(C)C` (stereo partly drawn), at Beta-secretase 2, the Ki amounted to 30 nM.
On the same count and under the same terms, next, `CCc1cn2c3c(cc(C(=O)N[C@@H](Cc4ccccc4)C(O)CNCc4cccc(C(F)(F)F)c4)cc13)N(C)S(=O)(=O)C1(CC1)C2` (stereo partly drawn): 521 nM.
As to `CC(C)CNC(=O)C(NCC(O)C(Cc1ccccc1)NC(=O)c1cccc(C(=O)N(C)C(C)c2ccccc2)c1)C(C)O` (stereo not drawn), the Ki was determined as 5810 nM at Beta-secretase 1 and 63.1 nM at Beta-secretase 2.
Consider `CCCC(O)C(NCC(O)C(Cc1ccccc1)NC(=O)c1cccc(C(=O)N(C)C(C)c2ccccc2)c1)C(=O)NCC(C)C` (stereo not drawn), for which the Ki on Beta-secretase 1 was 5250 nM; on Beta-secretase 2 it was 0.02 nM.
The like results for `CCCC(O)C(NCC(O)C(Cc1ccccc1)NC(=O)c1cccc(C(=O)N2CCCC2OC)c1)C(=O)NCC(C)C` (stereo not drawn) were, in that order, 267 nM and 76.6 nM.
For `CCCC(O)C(NCC(O)C(Cc1ccccc1)NC(=O)c1cc(C)cc(C(=O)N2CCCC2OC)c1)C(=O)NCC(C)C` (stereo not drawn), the results for the Ki on Beta-secretase 1 and on Beta-secretase 2 were 6.56 nM and 19.7 nM, respectively.
With `CCc1cn2c3c(cc(C(=O)N[C@@H](Cc4ccccc4)[C@H](O)CNC(COC)c4cccc(C(F)(F)F)c4)cc13)N(C)S(=O)(=O)C1(CC1)C2` (stereo partly drawn), the Ki at Beta-secretase 2 is 199 nM.
For the compound `NC1=Nc2ccc(Oc3ccccc3)cc2CN1C(CCC(=O)N(CC1CCC(=O)N1)C1CCCCC1)C1CCCCC1` (stereo not drawn), the Ki at Beta-secretase 2 was 48 nM.
With `CC(C)CN1CCNC(C(O)C(Cc2ccccc2)NC(=O)c2cc(C(=O)NC(C)c3ccccc3)cc(N(C)S(C)(=O)=O)c2)C1` (stereo not drawn), the Ki on Beta-secretase 2 was found to be 6060 nM.
In the case of `CSC[C@H](NC(=O)C1NOC2OCCC21)C(=O)NC(CC(C)C)[C@@H](O)CC(C)C(=O)NC(C(=O)N(C)C)C(C)C` (stereo partly drawn), the Ki at Beta-secretase 2 came out at 46 nM.
Turning to `COCC(NC(=O)OCC(C1CCCCC1)N1Cc2cc(Oc3ccccc3)ccc2N=C1N)C(=O)N(C)C` (stereo not drawn), at Beta-secretase 2, the Ki amounted to 350 nM.
The same measure, in the same setting: next, `CC(C)CC(NC(=O)[C@H](CS(C)(=O)=O)NC(=O)C1NOC2OCCC21)[C@@H](O)CC(C)C(=O)NC(C(=O)N(C)C)C(C)C` (stereo partly drawn): 53 nM; `Cc1ncsc1CN(C(=O)CCC(C1CCCCC1)N1Cc2cc(Oc3ccccc3)ccc2N=C1N)C1CCCCC1` (stereo not drawn): 53 nM.
On to `Cc1oncc1CN(C(=O)CCC(C1CCCCC1)N1Cc2cc(Oc3ccccc3)ccc2N=C1N)C1CCCCC1` (stereo not drawn), for which, at Beta-secretase 2, the Ki stood at 70 nM.
With `COc1ccc(C(C(C)O)C(Cc2ccccc2)NC(=O)c2cc(C(=O)NC(C)c3ccccc3)cc(N(C)S(C)(=O)=O)c2)cc1` (stereo not drawn), the half-maximal inhibitory concentration (IC50) at Beta-secretase 2 came out at 700 nM.
Consider `CCCC(O)C(NCC(O)C(Cc1ccccc1)NC(=O)c1cc(C)cc(C(=O)N(C)C(C)c2ccccc2)c1)C(=O)NCC(C)C` (stereo not drawn), for which the values for the Ki on Beta-secretase 1 and on Beta-secretase 2 were 563 nM and 0.0014 nM, respectively.
Regarding `CC(C)CNC(=O)C(NCC(O)C(Cc1ccccc1)NC(=O)c1cc(C(=O)NC(C)c2ccccc2)cc(N(C)S(C)(=O)=O)c1)C(C)O` (stereo not drawn), the Ki at Beta-secretase 2 was 37 nM.
Regarding `Cc1cc(C(=O)NC(Cc2ccccc2)C(O)CNC(C(=O)NCC(C)C)C(C)O)cc(C(=O)N(C)C(C)c2ccccc2)c1` (stereo not drawn), the Ki on Beta-secretase 1 was found to be 1660 nM; on Beta-secretase 2 it was 1 nM.
For `CC(C)CNC(=O)C(NCC(O)C(Cc1ccccc1)NC(=O)c1cc(C(=O)NC(C)c2ccc(I)cc2)cc(N(C)S(C)(=O)=O)c1)C(C)O` (stereo not drawn), the Ki at Beta-secretase 2 was 89 nM.
For the compound `CC(CN1Cc2cc(Oc3ccccc3)ccc2N=C1N)C(=O)NCCC(C)(C)C` (stereo not drawn), the IC50 on Beta-secretase 2 is 500 nM.
Regarding `COc1cccc(C(NCC(O)C(Cc2ccccc2)NC(=O)c2cc(C(=O)NC(C)c3ccccc3)cc(N(C)S(C)(=O)=O)c2)C(C)O)c1` (stereo not drawn), the IC50 at Beta-secretase 2 was 350 nM.
Consider `CCCC(O)N(NC[C@H](Cc1ccccc1)NC(=O)c1cc2c3c(c1)c(CC)cn3CC1(CC1)S(=O)(=O)N2C)C(=O)NCC(C)C` (stereo partly drawn), for which the Ki at Beta-secretase 2 amounted to 11 nM.
